Consider two compounds from patent publication US20240156790A1, “COMPOUNDS, COMPOSITIONS, AND METHODS FOR MODULATING FERROPTOSIS AND TREATING EXCITOTOXIC DISORDERS” (THE TRUSTEES OF COLUMBIA UNIVERSITY IN THE CITY OF NEW YORK, priority 2018, published 2024).

Assay [1] concerns renal tubular ferroptosis. Nature of the assay: Renal tubular ferroptosis model triggered by ferric nitrilotriacetate (Fe-NTA). The class given is in vivo, Sprague-Dawley rat. The protocol:
Fe(NO3)3·12H2O (Wako, Osaka, Japan) and nitrilotriacetic acid disodium salt (Tokyo Chemical Industry, Tokyo, Japan) were dissolved in deionized water to generate 300 mM and 600 mM solutions, respectively, which were mixed immediately before injections by a ratio of 1:2 (v/v) and then adjusted to pH 7.4 with sodium carbonate to make Fe-NTA solution. PHB4082 was dissolved in 5% DMSO/95% of 65% v/v of 25% w/v 2-hydroxypropyl-β-cyclodextrin (Cayman Chemical) dissolved in 20% EtOH, 30% v/v Poly(ethylene glycol)-400 (Sigma Aldrich 202398), 5% v/v Tween 80 (Fluka 59924) to generate 2 mg/mL solution. The same formulation without PHB4082 was used as vehicle control. For both the solutions ultrasonic disruptor was applied to accelerate the dissolution and they are stored at −20° C. up to one week before injections.
Male wild-type Sprague-Dawley rat (CLEA Japan, Tokyo; n=6 for vehicle control, n=7 for PHB4082 pretreatment) at 4-6 weeks of age were fasted for 12 h prior to intraperitoneal administration of 2 mg/ml PHB4082 solution as pretreatment or with the formulation without PHB4082 as vehicle control. Two hours later all the rats were followed by IP injection of Fe-NTA with a dose of 10 mg iron/kg. The rats were euthanized 24 h after Fe-NTA injection. Fresh kidney tissues were excised and were either fixed in 10% phosphate-buffered formalin or preserved at −80° C. for subsequent analysis. The animal experiment committee of Nagoya University Graduate School of Medicine approved the animal experiments.
Immunostainings were performed by BOND MAX/III (Leica, Wetzlar, Germany) with BOND Polymer Refine Detection (ds9800; Leica) as described. Primary antibodies applied were listed as: anti-4-hydroxy-2-nonenal (HNE) modified proteins antibody (anit-HNEJ-1, in house), anti-transferrin receptor antibody (13-6800, Invitrogen). Quantitation of renal tubular ferroptosis was performed by measuring the necrotized cortical area after H&E staining by identifying the area of necrotized tubules with loss of nuclei. ImageJ was used for quantification of % necrosis area with randomly selected microscopic areas (×20, objective lens; n=9).
We evaluated the ferroptosis protection effect of PHB4082 in a renal tubular ferroptosis model. This model was previously established by Toyokuni lab (Kong et al. 2022; Toyokuni et al. 2022; Akatsuka et al. 2012). A Fenton-reaction based renal carcinogenesis in this model results from repeated intraperitoneal injections of ferric nitrilotriacetate (Fe-NTA). This iron chelate could specifically induce proximal epithelial ferroptosis via single IP administration. […] We chose 24 h after Fe-NTA administration for evaluation of the effects of PHB4082 because this is the peak time for renal tubular necrosis.

The next assay has as its system HT-1080 cells. Nature of the assay: Rescue activity of selected Fer-1 analogs, dose-response in HT-1080 cells (cell titer glo). The class given is cell-based. The protocol:
Selected Fer-1 analogs containing a pyridine moiety (FIG. 4) were tested to examine their efficacy and overall potency in inhibiting ferroptosis. For each of these compounds, dose-response curves were generated in HT-1080 cells looking at the effectiveness of the molecules in inhibiting ferroptosis induced by either 3 μM IKE or 0.2 μM RSL3, Fer-1 was used as a positive control. For each dose-response curve, 1,000 cells/well were seeded in a 384 well plate and allowed to adhere overnight prior to treating with compound from a daughter plate. Cells were treated for 48 hours, unless otherwise noted, prior to viability being analyzed using cell titer glo (40 μL per well). All liquid handling was performed using the BioMek. All samples were prepared in triplicate, unless otherwise noted.
A general note: Cellular ATP, detected with luciferase, serves as a proxy for viable cell number.

Structures are written as SMILES. Entries after “also recorded” stand apart in the source; their conditions may differ.

Consider `Cc1noc(-c2ccc(NC3CCCCC3)c(NC3CCCCC3)c2)n1` [PHB4082, N1,N2-dicyclohexyl-4-(3-methyl-1,2,4-oxadiazol-5-yl)benzene-1,2-diamine], for which, in assay [1] (24 h after Fe-NTA), the “HNE adducts in proximal tubules (HNEJ-1 immunostaining)” value is listed as “less amounts of HNE adducts”, the “TfR1 / TRF1/CD71 signals in proximal tubules” value is “low to moderate signals in the proximal tubules; also recorded: less signals for TRF1/CD71” and the “necrotized renal tubular area” value is on record as “dramatically reduced the necrotized renal tubular area”. Moreover, the “survival 24 h after Fe-NTA administration” value in assay [1] (IP pretreatment 2 h before Fe-NTA 10 mg iron/kg) is recorded as “all of those with PHB4082 pretreatment survived 24 hrs”.

Regarding `CCOC(=O)c1ccc(NC2CCCCC2)c(N)c1` [Fer-1, Ferrostatin-1, reference compound], the “death observed with RSL3” value in the assay on HT-1080 cells (0.2 μM RSL3, inhibitor range 10 μM-0 μM) is reported as “No death was observed”. The “rescue against IKE and erastin” value in the assay with HT-1080 cells (inhibitor 1 μM-0 μM, 3 μM IKE, 10 μM erastin, 48 hours) is about 50%.
